Reference: patent publication US20250002450A1, “CATIONIC STEROID COMPOUNDS, METHOD OF OBTAINING THEREOF, FORMULATIONS COMPRISING THEREOF AND THEIR USES” (UNIVERSIDADE DO PORTO, priority 2021, published 2025)
≈ marks a conversion by molar mass, not a printed value. Like-named read-outs stand apart in the source and are kept apart here.

How the values were obtained:
[1] = test system: Fusarium solani FF125; experiment: Antifungal MIC/MLC (broth microdilution); format: cell-based
Protocol: (§1) The antifungal activity of compound 1 was evaluated for a wide range of fungal species, covering yeasts and filamentous fungi, including dermatophytes. […] This antimicrobial effect was fungicidal, with minimal lethal concentrations (MLC) being equal to, or one or two-fold higher than the respective MIC. Twenty-three fungal strains were used in this study, including reference strains and clinical isolates of yeasts and filamentous fungi. Yeast strains included reference strains (ATCC—American Type Culture Collection and CECT—Colección Española de Cultivos Tipo) and clinical isolates: C. albicans ATCC 10231, Candida krusei ATCC 6258, C. albicans H37, C. albicans FF172, C. albicans FF176, C. albicans DSY294, C. albicans DSY296, C. glabrata DSY562, C. glabrata DSY565 and Cryptococcus neoformans CECT 1078. Filamentous fungi included Aspergillus fumigatus ATCC 240305, A. fumigatus C111, A. niger ATCC 16404, A. flavus F44, Fusarium solani FF125, F. oxysporum FF115, and dermatophytes Trichophyton rubrum FF5, T. mentagrophytes FF7, Microscoporum canis FF1 and Nannizzia gypsea FF3 (formerly Microsporum gypseum) and a species of genera Mucor, Lichetheimia and Scedosporium. Saprolegnia parasitica CBS 223.65, a reference strain of an oomycete fish pathogen, was also included. All microorganisms were kept in Sabouraud Dextrose Broth (SDB: BioMérieux, Marcy L'Etoile, France) plus glycerol (20%) at −80° C. The strains were kept in Sabouraud Dextrose Agar (SDA: BioMérieux, Marcy L'Etoile, France) slants and were sub-cultured in SDA before each test. S. parasitica was kept in Corn Meal Agar plates (CMA: BBL™ Corn Meal Agar, BD, Le Pont-de-Claix, France) and was sub-cultured in CMA before each experiment. C. albicans H37, was kindly provided by Cidilia Pina Vaz (CHSJ, Porto, Portugal) and C. albicans DSY294, C. albicans DSY296, C. glabrata DSY562, C. glabrata DSY565 were kindly provided by D. Sanglard (University of Lausanne, Switzerland). A stock solution of compound 1 (10 mg/mL), was prepared in dimethyl sulfoxide (DMSO 99%: Alfa Aesar, Kandel, Germany), kept at −20 degrees C., and freshly diluted in the appropriate culture media before each assay. In all experiments, in-test concentrations of DMSO were kept below 2%. Fluconazole (Alfa Aesar, Ward Hill, MA, USA) was tested as commercial antifungal.
(§2) Antifungal activity was evaluated by determining the MIC of compound 1 by the broth microdilution method, according to CLSI guidelines (reference documents M27-A3 for yeasts and M38-A2 for filamentous fungi). Briefly, cell or spore suspensions were prepared in RPMI-1640 broth medium (Biochrom, Berlin, Germany) buffered with 3-(N-morpholino)propane sulfonic acid (MOPS) (Sigma-Aldrich, St. Louis, MO, USA) (henceforth referred to as RPMI) from fresh cultures of the different strains of fungi. For yeasts, the inoculum was adjusted to 0.5-2.5×10^3 CFU/mL. For filamentous fungi, the inoculum was adjusted to 1-3×10^3 CFU/mL for dermatophytes, and 0.4-5×10^4 CFU/mL for all other strains. […] Sterility and growth controls were included in each assay. The 96-well flat-bottomed untreated polystyrene microtiter plates which were incubated for 48 h at 35° C., with the exception of Lichetheimia spp. which was incubated at 25° C. for 48 h, and the dermatophyte strains, which incubated for 5-7 days at 25° C. […] Voriconazole (kindly provided by Pfizer Ldt., UK) MIC for C. krusei ATCC 6258 was used as quality control and the assays were validated when the results obtained were within the recommended limits. The minimal lethal concentration (MLC) was determined by spreading 20 μL of culture collected from wells showing no visible growth on SDA plates. The MLC was determined as the lowest concentration showing complete growth inhibition after 48 h at 35 degrees C., 48 h at 25 degrees C. (Lichetheimia spp.) or 5-7 days at 25 degrees C. (dermatophytes). At least two independent assays were performed for all tested strains.

[2] = test system: A. flavus F44; experiment: Antifungal MIC/MLC (broth microdilution); format: cell-based
Protocol: as §1, §2

[3] = test system: Cryptococcus neoformans CECT 1078; experiment: Antifungal MIC/MLC (broth microdilution); format: cell-based
Protocol: as §1, §2

[4] = test system: A. niger ATCC 16404; experiment: Antifungal MIC/MLC (broth microdilution); format: cell-based
Protocol: as §1, §2

[5] = test system: Scedosporium spp.; experiment: Antifungal MIC/MLC (broth microdilution); format: cell-based
Protocol: as §1, §2

[6] = test system: C. glabrata DSY565; experiment: Antifungal MIC/MLC (broth microdilution); format: cell-based
Protocol: as §1, §2

[7] = test system: C. glabrata DSY562; experiment: Antifungal MIC/MLC (broth microdilution); format: cell-based
Protocol: as §1, §2

[8] = test system: Lichtheimia spp.; experiment: Antifungal MIC/MLC (broth microdilution); format: cell-based
Protocol: as §1, §2

[9] = test system: C. albicans ATCC 10231; experiment: Potassium ion efflux analysis; format: cell-based, Candida albicans; details: 5 min
Protocol: In an embodiment, the potassium ion (K^+) efflux analysis was performed as follows ([FIG. 9]). Leakage of potassium ions is a common response to membrane-disrupting agents; therefore, extracellular K^+ was quantified by flame atomic absorption spectrometry, after 5 min of exposure to compound 1 ([FIG. 10]). […] Efflux of potassium was determined by quantification of extracellular K^+ by flame atomic absorption spectrometry. Cell suspensions of C. albicans ATCC 10231 were prepared in the same manner as described for PI influx assay, and test conditions were also the same. After 5 min of exposure, cells were centrifuged for 10 min at 3500 rpm and the supernatants were filtrated using a cellulose acetate syringe filter with a 0.22 µm pore size. Samples were analyzed with a AAnalyst 200 Atomic Absorption Spectrometer (Perkin Elmer). Four independent assays were performed and the data are presented as percentage of control (untreated cells as […] of K^+).

[10] = Fusarium solani FF125, intrinsically resistant to fluconazole
[11] = A. flavus F44, intrinsically resistant to fluconazole
[12] = A. niger ATCC 16404, intrinsically resistant to fluconazole
[13] = C. glabrata DSY565, resistant to fluconazole or azoles
[14] = Lichtheimia spp., intrinsically resistant to fluconazole

OC(Cn1cncn1)(Cn1cncn1)c1ccc(F)cc1F [Fluconazole, reference compound]
MLC [1, 10]: >128 µg/mL | MIC ([1]; Fusarium solani, FF125, read-out: MIC): ≥ 128 µg/mL | MLC [2, 11]: >128 µg/mL | MIC ([2]; Aspergillus flavus, F44, read-out: MIC): 128 µg/mL (≈ 418 µM) | MLC [3]: >32 µg/mL | MIC ([3]; CECT1078, read-out: MIC): 8 µg/mL (≈ 26.1 µM) | MLC [4, 12]: >128 µg/mL | MIC ([4]; Aspergillus niger, ATCC16404, read-out: MIC): ≥ 128 µg/mL | MLC [5]: 16 µg/mL (≈ 52.2 µM) | MIC ([5]; read-out: MIC): 4 µg/mL (≈ 13.1 µM) | MLC [6, 13]: >128 µg/mL | MIC ([6]; Nakaseomyces glabratus, DSY565): 128 µg/mL (≈ 418 µM) | MLC [7]: >128 µg/mL | MIC ([7]; Nakaseomyces glabratus, read-out: MIC): 4 µg/mL (≈ 13.1 µM) | MLC [8, 14]: >128 µg/mL | MIC ([8]; Lichtheimia, read-out: MIC): 64 µg/mL (≈ 209 µM) | levels of extracellular K+ vs untreated control ([9]; 8 μg/mL): not

C[C@H](CCC(=O)NCCN)[C@H]1CC[C@H]2[C@@H]3CC[C@@H]4C[C@H](O)CC[C@]4(C)[C@H]3C[C@H](O)[C@]12C [Compound 1, (R)—N-(2-aminoethyl)-4-((3R,5R,8R,9S,10S,12S,13R,14S,17R)-3,12-dihydroxy-10,13-dimethylhexadecahydro-1H-cyclopenta[a]phenanthren-17-yl) pentanamida]
MIC [1, 10]: 64 µg/mL (≈ 147 µM) | MLC [1, 10]: >128 µg/mL | MIC [2, 11]: ≥128 µg/mL | MLC [2, 11]: >128 µg/mL | MIC [3]: 32 µg/mL (≈ 73.6 µM) | MLC [3]: 64 µg/mL (≈ 147 µM) | MIC [4, 12]: 64 µg/mL (≈ 147 µM) | MLC [4, 12]: 128 µg/mL (≈ 294 µM) | MIC [5]: 64 µg/mL (≈ 147 µM) | MLC [5]: 128 µg/mL (≈ 294 µM) | MIC [6, 13]: 64 µg/mL (≈ 147 µM) | MLC [6, 13]: 64 µg/mL (≈ 147 µM) | MIC [7]: 64 µg/mL (≈ 147 µM) | MLC [7]: 64 µg/mL (≈ 147 µM) | MIC [8, 14]: 64 µg/mL (≈ 147 µM) | MLC [8, 14]: >128 µg/mL | levels of extracellular K+ vs untreated control ([9]; 128, 64, and 32 μg/mL (2×MIC, MIC, ½×MIC)): significant levels of extracellular K
